From patent EP2924021A1, “ANTI-HIV COMPOUND AND PREPARATION METHOD AND USE THEREOF” (priority 2012, dated 2014) come the findings set out here.

For one data set, the system named is HIV-1IIIB(H9 cells). The data set is described as follows: Anti-HIV activity in H9 cells. To be noted: for TI: TI(CC50/EC50). Format: cell-based.
The test system of the next data set is HIV-1IIIB (C8166 cells). Description: Anti-HIV activity in C8166 cells. Format: cell-based. To be noted: for TI: TI(CC50/EC50).
A further data set relates to HIV-1A17. To be noted: HIV-1A17, NVP resistant.
A further data set has as its system HIVKM018. To be noted: HIVKM018, clinical strain.
The next data set is described as follows: Acute toxicity test. Type of data set: in vivo. As to conditions: for safety at a high dose: high dose (10g/kg); for acute toxicity test: in vivo.
For a further data set, the system named is HIV-1TC-1. To be noted: HIV-1TC-1, clinical strain.
A further data set concerns H9 cells. The data set is described as follows: Cytotoxicity in H9 cells (CC50). Format: cell-based, human. To be noted: measured twice, average.
The next data set deals with C8166 cells. The data set is described as follows: Cytotoxicity in C8166 cells (CC50). Format: cell-based, human. As to conditions: measured twice, average.
A short description of data set [1]: Pharmacokinetics: metabolism of 67 to 46, blood concentration and bioavailability. Type of data set: in vivo. To be noted: after oral gavage of 67 by 100mg/kg.
The test system of another data set is HIV-2 ROD. Description: Anti-HIV-2 activity and cytotoxicity. Type of data set: cell-based.
The test system of the next data set is HIV-2 CBL-20. The data set is described as follows: Anti-HIV-2 activity and cytotoxicity. Format: cell-based.
The mark [2] stands for this setting: Human immunodeficiency virus 1, H9 cells, HIV-1IIIB, measured twice, average, read-out: EC50.
[3] abbreviates: Human immunodeficiency virus 1, C8166 cells, HIV-1IIIB, measured twice, average, read-out: EC50.
Where [4] appears, read: H9 cells, HIV-1IIIB, measured twice, average.

≈ marks a conversion by molar mass, not a printed value. Where “and” joins values, the source holds several entries; their conditions need not be identical. Equal values may be shown once. Read-outs that look alike come from different tables or passages of the source. Some results are limits rather than exact numbers.

Protocol for HIV-1A17: (§1) The anti-HIV activity was determined by the "Guiding Principles of Anti HIV Drug Unclinical Pharmacodynamics" of SFDA which is tested by technology standard assay according to International Universal Standards and Methods. Where in CC50, EC50 were measured twice and took the average.
Protocol for HIV-1IIIB (C8166 cells): as §1
Protocol for HIV-1IIIB(H9 cells): as §1
Protocol for HIV-1TC-1: as §1
Protocol for HIVKM018: as §1

For the compound `COc1ccccc1NC(=O)c1c(N)cccc1Sc1ccc(C(=O)O)cc1` [compound 76, 4-((3-amino-2-((2-methoxyphenyl)carbamoyl)phenyl)thio)benzoic acid], the EC50 (commonly the concentration giving half of the maximal effect) in the data set with HIV-1IIIB(H9 cells) (setting [2]) is 100 µg/mL (≈ 254 µM); with HIV-1IIIB (C8166 cells) (setting [3]) it was 92 µg/mL (≈ 233 µM).

Take `Nc1cccc(Sc2ccc([N+](=O)[O-])cc2)c1C(=O)Nc1ccccc1I` [compound 71, 2-amino-N-(2-iodophenyl)-6-((4-nitrophenyl)thio)benzamide]: the EC50 in the data set with HIV-1IIIB(H9 cells) (setting [2]) was over 200 µg/mL; in the data set with HIV-1IIIB (C8166 cells) (setting [3]) it was 61.4 µg/mL (≈ 125 µM).

For the compound `COc1ccccc1NC(=O)c1c(N)cccc1S(=O)(=O)c1ccc(C(=O)O)cc1` [compound 77, 4-((3-amino-2-((2-methoxyphenyl)carbamoyl)phenyl)sulfonyl)benzoic acid], the EC50 in the data set with HIV-1IIIB(H9 cells) (setting [2]) and in the data set with HIV-1IIIB (C8166 cells) (setting [3]) was over 200 µg/mL throughout.

As for `COc1ccccc1NC(=O)c1c(NS(=O)(=O)c2ccccc2)cccc1S(=O)(=O)c1ccc([N+](=O)[O-])cc1` [compound 61, N-(2-methoxyphenyl)-2-((4-nitrophenyl)sulfonyl)-6-(phenylsulfonamido)benzamide], the EC50 with HIV-1IIIB(H9 cells) (setting [2]) was over 200 µg/mL; in the data set with HIV-1IIIB (C8166 cells) (setting [3]), 46.9 µg/mL (≈ 82.7 µM).

In the case of `COc1ccccc1NC(=O)c1cc(N)ccc1Sc1ccc([N+](=O)[O-])cc1` [compound 24, 5-amino-N-(2-methoxyphenyl)-2-((4-nitrophenyl)thio)benzamide], the EC50 in the data set with HIV-1IIIB(H9 cells) (setting [2]) turned out to be 2.62 µg/mL (≈ 6.63 µM); with HIV-1IIIB (C8166 cells) (setting [3]), 2.59 µg/mL (≈ 6.55 µM).

Regarding `COc1ccccc1NC(=O)c1c(N)cccc1Oc1ccc([N+](=O)[O-])cc1` [compound 48, 2-amino-N-(2-methoxyphenyl)-6-(4-nitrop-henoxy)benzamide], in the data set on HIV-1IIIB(H9 cells) (setting [4]), the EC50 turned out to be 35.87 µg/mL (≈ 94.6 µM).

In the case of `COc1ccccc1NC(=O)c1cc(C(F)(F)F)ccc1Sc1ccc([N+](=O)[O-])cc1` [compound 22, N-(2-methoxyphenyl)-2-((4-nitrophenyl)thio)-5-(trifluoromethyl)benzamide], the EC50 with HIV-1IIIB(H9 cells) (setting [2]) and in the data set on HIV-1IIIB (C8166 cells) (setting [3]) was over 200 µg/mL throughout.

As for `COc1ccccc1NC(=O)c1c(NCCN)cccc1Sc1ccc([N+](=O)[O-])cc1` [compound 78, 2-((2-aminoethyl)amino)-N-(2-methoxyphenyl)-6-((4-nitrophenyl)thio)benzamide], the EC50 with HIV-1IIIB(H9 cells) (setting [2]) is 19.9 µg/mL (≈ 45.4 µM); in the data set with HIV-1IIIB (C8166 cells) (setting [3]), 16.9 µg/mL (≈ 38.6 µM).

Turning to `COc1ccccc1NC(=O)c1c(N(C)C)cccc1S(=O)(=O)c1ccc([N+](=O)[O-])cc1` [compound 58, 2-(dimethylamino)-N-(2-methoxyphenyl)-6-((4-nitrophenyl)sulfonyl)benzamide], the EC50 amounted to 103 µg/mL (≈ 226 µM) in the data set with HIV-1IIIB(H9 cells) (setting [2]) and 100 µg/mL (≈ 219 µM) with HIV-1IIIB (C8166 cells) (setting [3]).

As to `COc1ccccc1NC(=O)c1c(N)cccc1S(=O)(=O)c1ccc([N+](=O)[O-])cc1` [compound 46, 2-amino-N-(2-methoxyphenyl)-6-((4-nitroph-enyl)sulfonyl)benzamide], the “TI(CC50/EC50)” value was over 20 with HIV-1A17, over 31.65 in the data set on HIVKM018 and over 1818.18 in the data set on HIV-1TC-1. Further, the TI was over 303.03 in the data set on HIV-1IIIB(H9 cells) (H9 cells); 2081.59 and 2018.59 with HIV-1IIIB (C8166 cells) (C8166 cells). For the same compound, the “safety at a high dose” value in “Acute toxicity test” is on record as “very safe”. Moreover, the acute toxicity test entry in “Acute toxicity test” is reported as “no abnormal phenomenon occurred”.

`COc1ccccc1NC(=O)c1c(NC(=O)C(N)Cc2ccccc2)cccc1S(=O)(=O)c1ccc([N+](=O)[O-])cc1` (centres unmarked) [compound 83, 2-(2-amino-3-phenylpropanamido)-N-(2-methoxyphenyl)-6-((4-nitrophenyl)sulfonyl)benzamide]: the EC50 with HIV-1IIIB(H9 cells) (setting [2]) worked out at 0.15 µg/mL (≈ 0.261 µM); in the data set on HIV-1IIIB (C8166 cells) (setting [3]), 0.45 µg/mL (≈ 0.783 µM).

Regarding `Nc1cccc(S(=O)(=O)c2ccc([N+](=O)[O-])cc2)c1C(=O)Nc1ccccc1I` [compound 72, 2-amino-N-(2-iodophenyl)-6-((4-nitrophenyl)sulfonyl)benzamide], the results for the EC50 in the data set on HIV-1IIIB(H9 cells) (setting [2]) and in the data set on HIV-1IIIB (C8166 cells) (setting [3]) were 193 µg/mL (≈ 368 µM) and 16.2 µg/mL (≈ 30.9 µM), respectively.

`COc1ccccc1NC(=O)c1c(NCC(N)=O)cccc1Sc1ccc([N+](=O)[O-])cc1` [compound 82, 2-((2-amino-2-oxoethyl)amino)-N-(2-methoxyphenyl)-6-((4-nitrophenyl)thio)benzamide]: the EC50 in the data set with HIV-1IIIB(H9 cells) (setting [2]) and in the data set on HIV-1IIIB (C8166 cells) (setting [3]) was over 200 µg/mL each time.

For `CNc1cccc(S(=O)(=O)c2ccc([N+](=O)[O-])cc2)c1C(=O)Nc1ccccc1OC` [compound 59, N-(2-methoxyphenyl)-2-(methylamino)-6-((4-nitrophenyl)sulfonyl)benzamide], the EC50 is 123 µg/mL (≈ 278 µM) in the data set on HIV-1IIIB(H9 cells) (setting [2]) and 63.7 µg/mL (≈ 144 µM) with HIV-1IIIB (C8166 cells) (setting [3]).

`COc1ccccc1NC(=O)c1c(NC(=O)C(N)CCCCN)cccc1Sc1ccc([N+](=O)[O-])cc1.Cl` (centres unmarked) [compound 68, 2-(2,6-diaminohexanamido)-N-(2-methoxyphenyl)-6-((4-nitrophenyl)thio)benzamide hydrochloride]: the TI in the data set with HIV-1IIIB(H9 cells) (H9 cells) amounted to 37.85; with HIV-1IIIB (C8166 cells) (C8166 cells), 122.45. The EC50 in the data set with HIV-1IIIB(H9 cells) (setting [2]) was 2.38 µg/mL; in the data set with HIV-1IIIB (C8166 cells) (setting [3]), 0.94 µg/mL.

Consider `COc1ccccc1NC(=O)c1c(NCP(=O)(OC(C)C)OC(C)C)cccc1Sc1ccc([N+](=O)[O-])cc1` [compound 65, diisopropyl(((2-((2-methoxyphenyl)carbamoyl)-3-((4-nitro-phenyl)thio)phenyl)amino)methyl)phosphonate], for which the TI in the data set with HIV-1IIIB(H9 cells) (H9 cells) is on record as 0.13; with HIV-1IIIB (C8166 cells) (C8166 cells), 0.18. Moreover, the EC50 in the data set with HIV-1IIIB(H9 cells) (Human immunodeficiency virus 1, H9) was over 200 µg/mL; in the data set with HIV-1IIIB (C8166 cells) (Human immunodeficiency virus 1, C8166) it was 106 µg/mL (≈ 184 µM).

In the case of “5-(dimethylamino)-N-(2-methoxyphenyl)-2-((4-nitrophenyl)thio)benzamide [compound 28]”, the figures for the cytotoxic concentration (CC50) in the data set on H9 cells and in the data set with C8166 cells were 77.23 µg/mL and 93.04 µg/mL, respectively. Moreover, the EC50 came out at 98.45 µg/mL in the data set on HIV-1IIIB(H9 cells) (setting [4]) and 83.84 µg/mL in the data set on HIV-1IIIB (C8166 cells) (C8166 cells, HIV-1IIIB, measured twice, average).

`COc1ccccc1NC(=O)c1c(NC(=O)CN)cccc1S(=O)(=O)c1ccc([N+](=O)[O-])cc1.Cl.Cl` [compound 67, 2-(2-aminoacetamido)-N-(2-methoxyphenyl)-6-((4-nitrophenyl)sulfonyl)benzamide hydrochloride hydrochloride]: the “max blood concentration of 46” value in data set [1] was 21.662 µg/mL. The TI in the data set with HIV-1IIIB(H9 cells) (H9 cells) turned out to be 790.58; in the data set with HIV-2 ROD it was 161.78; with HIV-1IIIB (C8166 cells) (C8166 cells), 388.04; with HIV-2 CBL-20, 87.82. The EC50 in the data set on HIV-1IIIB(H9 cells) (setting [2]) was found to be 0.12 µg/mL; in the data set with HIV-1IIIB (C8166 cells) (setting [3]) it was 0.43 µg/mL. The “safety at a high dose” value in “Acute toxicity test” is reported as “very safe”. Also, the acute toxicity test entry in the data set “Acute toxicity test” is reported as “no abnormal phenomenon occurred”.
